Counter-ions that a name gives are not always drawn.

The test system of one series is ethanol-induced narcosis.
Test: not given
In kind it is in vivo, male CD1 mice. Conditions: post-treatment, 0.062 μmol/kg i.p. The text has this: It is known that administration of ethanol to mice induces a state of narcosis in the animals. […] It is also known that certain compounds can modify the narcotic effect of ethanol in this model.
Animals: Male CD1 mice (Charles-River Co., Portage, Mich.) weighing 25-30 g were used in the experiments. Upon arrival they were caged in groups of 14 and allowed to acclimatize to laboratory conditions for one week before the beginning of the studies. They were fed standard rodent diet with food and water ad libitum.
Duration of sleep time: Mice received intraperitoneal (i.p.) injections of ethanol and either saline or one of the drug treatments. Upon loss of the righting reflex, a timer was started to record the duration of the sleep time until the reflex was recovered. Two types of experiments were conducted to study the effect of drugs before (pre-treatment) or after (post-treatment) the injection of the narcotic dose of ethanol. In the pre-treatment experiments the drugs were injected i.p., 15 minutes before ethanol. In the post-treatment experiments the drugs were administered i.p., 1 minute after the animals lost the righting reflex, which was approximately 5 minutes after administration of ethanol.
Drugs: Ethanol was prepared as a 20% v/v (16% w/v) solution in saline. Based on previous studies, a dose of 87 mmol/kg (4 g/kg) was selected as the narcotic dose. RO 15-4513, the benzodiazepine receptor inverse agonist discussed in the Background section, was purchased from RBI (Natick, Mass.). It was dissolved in saline solution with Tween-80 and ultrasonically homogenized for 3 minutes. […] The compounds of Examples 2 and 4, both novel neuronal nicotinic receptor ligands according to the present invention, were also dissolved in saline to the desired concentrations.
As for `CCc1cc([C@@H]2CCCN2C)on1.O=C(O)C(=O)O` [Example 4, 3-Ethyl-5-(1-methyl-2(S)-pyrrolidinyl)-isoxazole oxalate salt], the Sleeping time is recorded as 73 ± 12 % of controls.

Still in this series, the particulars now being: post-treatment, 0.19 μmol/kg i.p.
As to `CCc1cc([C@@H]2CCCN2C)on1.O=C(O)C(=O)O` [Example 4, 3-Ethyl-5-(1-methyl-2(S)-pyrrolidinyl)-isoxazole oxalate salt], the Sleeping time is reported as 61 ± 7 % of controls.

Still in this series, the particulars now being: post-treatment, 0.62 μmol/kg i.p.
As to `CCc1cc([C@@H]2CCCN2C)on1.O=C(O)C(=O)O` [Example 4, 3-Ethyl-5-(1-methyl-2(S)-pyrrolidinyl)-isoxazole oxalate salt], the Sleeping time is listed as 59 ± 8 % of controls.

Still in this series, the particulars now being: post-treatment, i.p.; p<0.05, one-tailed t test.
Take `CCc1cc([C@@H]2CCCN2C)on1.O=C(O)C(=O)O` [Example 4, 3-Ethyl-5-(1-methyl-2(S)-pyrrolidinyl)-isoxazole oxalate salt]: the “effect of post-treatment on ethanol-induced narcosis” value is listed as “significantly reduced”.

Another series deals with neuronal nicotinic receptors. The series can be described thus: Displacement of [3H]-MCC or [3H]-cytisine from neuronal nicotinic receptors, whole rat brain membranes. Format: binding. Conditions: Table 1; hydrochloride salt; read-out: Nicotinic Receptor Ki. The procedure: Binding of [^3 H]-methylcarbamylcholine ([^3 H]-MCC) or [^3 H]-cytisine ([^3 H]-CYT) to nicotinic receptors was accomplished using crude synaptic membrane preparations from whole rat brain (Snyder and Enna, Brain Research, 1975, 100:81). Washed membranes were stored at -80° C. prior to use. Frozen aliquots were slowly thawed and resuspended in 20 volumes of buffer (containing: 120 mM NaCl, 5 mM KCl, 2 mM MgCl2, 2 mM CaCl2 and 50 mM Tris-Cl, pH 7.4 @4° C). After centrifuging at 20,000 X g for 15 minutes, the pellets were resuspended in 30 volumes of buffer. Homogenate (containing 125-150 μg protein) was added to triplicate tubes containing concentrations of test compound and [^3 H]-MCC (3 nM) in a final volume of 500 μL. Samples were incubated for 60 minutes at 4° C., then rapidly filtered through Whatman GF/B filters presoaked in 0.5% polyethylimine using 3×4 mL of ice-cold buffer. Alternately, homogenate and test compound were incubated for 75 min with [^3 H]-CYT (1.3 nM), then rapidly filtered, as described above. The filters are counted in 4 mL of Ecolume® (ICN). […] IC50 values were determined with the ALLFIT nonlinear least squares curve-fitting program and IC50 values were converted to Ki values using the Cheng and Prusoff correction (Ki =IC50 /(1+[ligand]/Kd of ligand)). Alternately, data were expressed as a percentage of the total specific binding.
On the technique in general: In a radioligand displacement assay an active substance lowers the binding of a labelled ligand.
Usually Ki stands for the dissociation constant of the complex between target and ligand, obtained from inhibition or displacement. For the compound `CN1CCC[C@H]1c1cc(Cc2ccccc2)no1` [Example 8, 3-Benzyl-5-(1-methyl-2(S)-pyrrolidinyl)-isoxazole hydrochloride salt], the inhibition constant Ki was 0.013 µM.
Take `Cc1cc([C@@H]2CCCN2C)on1` [Example 11, 3-Methyl-5-(1-methyl-2(S)-pyrrolidinyl)-isoxazole hydrochloride salt]: the Ki turned out to be 0.003 µM.
On the same count and under the same terms, in the case of `CCc1cc([C@@H]2CCCN2C)on1` [Example 12, 3-Ethyl-5-(1-methyl-2(S)-pyrrolidinyl)-isoxazole hydrochloride salt] it was 0.007 µM.

The series is the same for the next values; noted with them: Table 1; oxalate salt; read-out: Nicotinic Receptor Ki.
For `CCc1cc([C@@H]2CCCN2C)on1.O=C(O)C(=O)O` [Example 4, 3-Ethyl-5-(1-methyl-2(S)-pyrrolidinyl)-isoxazole oxalate salt], the Ki amounted to 0.009 µM.
As to `CN1CCC[C@H]1c1cc(Cc2ccccc2)no1` [Example 7, 3-Benzyl-5-(1-methyl-2(S)-pyrrolidinyl)-isoxazole oxalate salt], the inhibition constant (Ki) came to 0.018 µM.

The series is the same for the next values; noted with them: Table 1; read-out: Nicotinic Receptor Ki.
For `Cc1cc([C@H]2C[C@H](O)CN2C)on1` (relative stereo) [Example 21, 3-Methyl-5-(trans-4-hydroxy-1-methyl-2-pyrrolidinyl)-isoxazole oxalate salt], the inhibition constant Ki stood at 0.114 µM.
Same read-out and setting: the result for `Cc1cc([C@H]2C[C@H](CF)CN2C)on1` (relative stereo) [Example 22, 3-Methyl-5-(trans-4-fluoromethyl-1-methyl-2-pyrrolidinyl)-isoxazole hydrochloride] reads 0.183 µM; that for `Cc1cc([C@H]2C[C@H](C)CN2C)on1` (relative stereo) [Example 24, 3-Methyl-5-(trans-1,4-dimethyl-2-pyrrolidinyl)-isoxazole oxalate salt], 0.024 µM; that for `Cc1cc([C@H]2CC[C@H](C)N2C)on1` (relative stereo) [Example 25, 3-Methyl-5-(trans-1,5-dimethyl-2-pyrrolidinyl)-isoxazole oxalate salt], 0.289 µM.
The same measure, in the same setting: the result for `Cc1cc([C@@H]2CCCN2)on1` [Example 1, 3-Methyl-5-(2(S)-pyrrolidinyl)-isoxazole oxalate salt] reads 0.289 µM; that for `CCc1cc([C@@H]2CCCN2)on1` [Example 3, 3-Ethyl-5-(2(S)-pyrrolidinyl)-isoxazole oxalate salt], 0.621 µM; that for `CCCc1cc([C@@H]2CCCN2C)on1` [Example 9, 5-(1-Methyl-2(S)-pyrrolidinyl)-3-propyl-isoxazole hyrochloride salt], 0.014 µM.
Same read-out and setting: the result for `CCCCc1cc([C@@H]2CCCN2C)on1` [Example 10, 3-n-Butyl-5-(1-methyl-2(S)-pyrrolidinyl)-isoxazole hydrochloride salt] reads 0.024 µM; that for `CCN1CCC[C@H]1c1cc(C)no1` [Example 13, 5-(1-Ethyl-2(S)-pyrrolidinyl)-3-methyl-isoxazole hydrochloride salt], 0.034 µM.
Consider `Cc1cc([C@H]2CCCN2)on1` [Example 14], for which the Ki was determined as 0.01 µM.
On the same count and under the same terms, in the case of `Cc1cc([C@H]2CCCN2)on1` [Example 15, 3-Methyl-5-(2(R)-pyrrolidinyl)-isoxazole benzoate salt] it was 0.007 µM.
Same read-out and setting: the result for `Cc1cc([C@H]2CCCN2C)on1` [Example 16, 3-Methyl-5-(1-methyl-2(R)-pyrrolidinyl)-isoxazole hydrochloride salt] reads 0.055 µM; that for `CCc1cc([C@H]2CCCN2)on1` [Example 17, 3-Ethyl-5-(2(R)-pyrrolidinyl)-isoxazole oxalate salt], 0.012 µM.
On the same count and under the same terms, in the case of `Cc1cc([C@H]2CCCN2)sn1` [Example 19, 3-methyl-5-((2(R)-pyrrolidinyl)-isothiazole hydrochloride] it was 0.228 µM.
With `COCc1cc([C@@H]2CCCN2C)on1` [Example 20, 3-Methoxymethyl-5-(1-methyl-2(S)-pyrrolidinyl)-isoxazole fumarate salt], the Ki was found to be 0.022 µM.
`CN1CCC[C@H]1c1cc(Br)no1` [Example 27, 3-Bromo-5-(1-methyl-2(S)-pyrrolidinyl)-isoxazole hydrochloride]: the inhibition constant Ki was found to be 0.0077 µM.
Same read-out and setting: the result for `CCN1C[C@H](C)C[C@H]1c1cc(C)no1` [Example 28c, trans-5-(1-ethyl-4-methyl-2(S)-pyrrolidinyl)-3-methyl-isoxazole hydrochloride] reads 0.021 µM.
Turning to `Cc1cc([C@@H]2C[C@@H](C)CN2C)on1` [Example 28d, trans-5-(1-methyl-4-methyl-2(S)-pyrrolidinyl)-3-methyl-isoxazole hydrochloride], the Ki worked out at 0.0171 µM.
Take `COc1cc([C@@H]2CCCN2C)on1` [Example 29, 5-(1-methyl-2(S)-pyrrolidinyl-3-methoxy-isoxazole hydrochloride]: the Ki is 0.062 µM.
For the compound `CN1CCC[C@H]1c1cc(C(F)(F)F)no1` [Example 32, 3-trifluoromethyl-5-(1-methyl-2(S)-pyrrolidinyl)-isoxazole, hydrochloride], the Ki amounted to 0.0061 µM.
With `Cc1noc([C@@H]2CCCN2C)c1Cc1ccccc1` [Example 36, 3-methyl-5-(1-methyl-2(S)-pyrrolidinyl)-4-(phenylmethyl-isoxazole hydrochloride], the Ki came to 0.0776 µM.
Same read-out and setting: in the case of `CCc1c(C)noc1[C@@H]1CCCN1C` [Example 37, 3-methyl-5-(1-methyl-2(S)-pyrrolidinyl)-4-ethyl-isoxazole hydrochloride] it was 0.105 µM.
Same read-out and setting: in the case of `Cc1cc([C@H]2CCCCN2)on1` [Example 38, 3-methyl-5-(2(R)-piperidinyl)-isoxazole hydrochloride] it was 0.386 µM.
On to `Cc1cc([C@H]2CCCCN2C)on1` [Example 39, 3-methyl-5-(1-methyl-2(R)-piperidinyl)-isoxazole hydrochloride], for which the inhibitory constant (Ki) was found to be 0.357 µM.
The same measure, in the same setting: the result for `Cc1cc([C@@H]2CCCCN2)on1` [Example 40, 3-methyl-5-(2(S)-piperidinyl)-isoxazole hydrochloride] reads 0.283 µM; that for `Cc1cc([C@@H]2CCN2C)on1` [Example 41, 3-methyl-5-(1-methyl-2(S)-azetidinyl)-isoxazole hydrochloride], 0.0025 µM; that for `Cc1cc([C@@H]2CCCN2C)n(-c2ccccc2)n1` [Example 42, 3-methyl-5-(1-methyl-2(S)-pyrrolidinyl)-1-phenyl-pyrazole hydrochloride], 0.145 µM.
Same read-out and setting: the result for `Cc1cc([C@@H]2CCCN2C)[nH]n1` [Example 43, 3-methyl-5-(1-methyl-2(S)-pyrrolidinyl)-pyrazole hydrochloride] reads 0.228 µM.

Tested on in a further series: not given
Test: not given
To be noted: in vivo; cited from earlier work.
With `C[N+](C)(C)CCOC(N)=O` [carbachol], the CNS penetration entry was “poor CNS penetration”.

For the next series, the system named is cholinergic receptors located in the heart and in cortical tissues.
Test: not given
To be noted: cardiac; cited from earlier work.
For `CCN1C(=O)CC2(CCN(C)CC2)C1=O` [RS-86], the “agonism at cardiac receptors” value is on record as “full agonist”.

Still in this series, the particulars now being: cortical; cited from earlier work.
As for `CCN1C(=O)CC2(CCN(C)CC2)C1=O` [RS-86], the “agonism at cortical receptors” value was “partial agonist”.

The values are drawn from patent publication US5409946A, “Isoxazole, isothiazole and pyrazole compounds that enhance cognitive function” (Abbott Laboratories, priority 1993, dated 1995).
